# Values of other authors in patent US6387915B2, “Isoxazole-sulfonamide endothelin antagonists” (Pfizer Inc., priority 2000, dated 2002).
# What was measured:
# [1] = in man; Hypertension (1999) 33, 581-585
# [2] = hypertensive patients; H. Krum et al., New Eng. J. Med. (1998) 338, 784-790
# neointimal formation = settings: S. Douglas et al., Circ. Res, 75, 1994
smiles,measurement,setting,value
CCCC[C@@H](NC(=O)[C@@H](Cc1cn(C(=O)OC)c2ccccc12)NC(=O)[C@H](CC(C)(C)C)NC(=O)N1[C@H](C)CCC[C@@H]1C)C(=O)O [BQ-788],effect on peripheral resistance,[1],increase peripheral resistance
COc1ccccc1Oc1c(NS(=O)(=O)c2ccc(C(C)(C)C)cc2)nc(-c2ncccn2)nc1OCCO [Bosentan],effect on blood pressure,[2],decreased blood pressure
CCCOc1ccc2c(c1)[C@@H](c1ccc(OC)cc1OCC(=O)O)[C@H](C(=O)O)[C@H]2c1ccc2c(c1)OCO2 [SB-209670],reduction in neointimal formation relative to control animals,neointimal formation,50%
